Assay results taken from US20190202840A1, “SALTS OF (S)-7-(1-(9H-PURIN-6-YLAMINO)ETHYL)-6-(3-FLUOROPHENYL)-3-METHYL-5H-THIAZOLO[3,2-A]PYRIMIDIN-5-ONE” (Incyte Corporation, priority 2015, published 2019).

What was measured:
human JAK1 = target: T1, human JAK1 (Homo sapiens, UniProt P23458); assay: In vitro JAK kinase assay (Example G, HTRF), JAK1; format: biochemical; conditions: 1 mM ATP
T1 construct: human JAK1 (a.a. 837-1142); made in house; host or cells: insect cells (baculovirus)

human JAK2 = target: T2, human JAK2 (Homo sapiens, UniProt O60674); assay: In vitro JAK kinase assay (Example G, HTRF), JAK2; format: biochemical; conditions: ratio of IC50s JAK2 over JAK1, 1 mM ATP
T2 construct: JAK2 (a.a. 828-1132); made in house; host or cells: insect cells (baculovirus)
T2 sequence (O60674 828-1132): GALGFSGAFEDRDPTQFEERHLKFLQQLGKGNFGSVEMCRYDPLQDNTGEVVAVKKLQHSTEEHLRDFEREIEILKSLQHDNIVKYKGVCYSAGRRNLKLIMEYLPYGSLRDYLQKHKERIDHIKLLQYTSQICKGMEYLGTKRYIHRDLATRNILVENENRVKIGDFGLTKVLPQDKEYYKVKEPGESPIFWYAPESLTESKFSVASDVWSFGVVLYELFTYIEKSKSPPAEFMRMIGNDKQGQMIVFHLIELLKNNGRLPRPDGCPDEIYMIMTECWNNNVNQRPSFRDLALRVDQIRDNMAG

T1 sequence (P23458 849-1154): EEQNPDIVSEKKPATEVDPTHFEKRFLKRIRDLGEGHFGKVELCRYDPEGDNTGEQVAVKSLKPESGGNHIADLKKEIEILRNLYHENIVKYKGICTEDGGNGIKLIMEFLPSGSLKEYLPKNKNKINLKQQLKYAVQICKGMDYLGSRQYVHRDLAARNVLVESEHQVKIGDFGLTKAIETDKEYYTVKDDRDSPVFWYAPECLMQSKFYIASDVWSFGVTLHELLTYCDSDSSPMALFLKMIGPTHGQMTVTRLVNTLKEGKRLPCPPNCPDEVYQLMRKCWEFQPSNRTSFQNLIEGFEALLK

Row | SMILES | IC50 (human JAK1) | JAK2/JAK1 (human JAK2)
1 | N#CCC(C1CCN(c2cccc(Cl)n2)C1)n1cc(-c2ncnc3[nH]ccc23)cn1 (single isomer, unassigned) [Compound 3, 3-[1-(6-chloropyridin-2-yl)pyrrolidin-3-yl]-3-[4-(7H-pyrrolo[2,3-d]pyrimidin-4-yl)-1H-pyrazol-1-yl]propanenitrile] | < 10 nM | >10
2 | C[C@@H](O)c1nc2cnc3ccsc3c2n1[C@H]1CC[C@H](CC#N)OC1 [Compound 1, ((2R,5S)-5-{2-[(1R)-1-hydroxyethyl]-1H-imidazo[4,5-d]thieno[3,2-b]pyridin-1-yl}tetrahydro-2H-pyran-2-yl)acetonitrile] | < 100 nM | >10
3 | N#CCC(C1CCN(c2nc3cccnc3o2)C1)n1cc(-c2ncnc3[nH]ccc23)cn1 (centres unmarked) [Compound 4, 3-(1-[1,3]oxazolo[5,4-b]pyridin-2-ylpyrrolidin-3-yl)-3-[4-(7H-pyrrolo[2,3-d]pyrimidin-4-yl)-1H-pyrazol-1-yl]propanenitrile] | < 10 nM | >10
4 | N#CCC(CN1CCN(C(=O)c2ccc(C#N)cc2F)CC1)n1cc(-c2ncnc3[nH]ccc23)cn1 (centres unmarked) [Compound 5, 4-[(4-{3-cyano-2-[4-(7H-pyrrolo[2,3-d]pyrimidin-4-yl)-1H-pyrazol-1-yl]propyl}piperazin-1-yl)carbonyl]-3-fluorobenzonitrile] | < 10 nM | >10
5 | N#CCC(CN1CCN(C(=O)c2ccc(C#N)cc2F)CC1)n1ccc(-c2ncnc3[nH]ccc23)c1 (centres unmarked) [Compound 6, 4-[(4-{3-cyano-2-[3-(7H-pyrrolo[2,3-d]pyrimidin-4-yl)-1H-pyrrol-1-yl]propyl}piperazin-1-yl)carbonyl]-3-fluorobenzonitrile] | < 10 nM | >10
6 | N#CCC1(n2cc(-c3ncnc4[nH]ccc34)cn2)CN(C2CCN(C(=O)c3ccnc(C(F)(F)F)c3F)CC2)C1 [Compound 7, {1-{1-[3-Fluoro-2-(trifluoromethyl)isonicotinoyl]piperidin-4-yl}-3-[4-(7H-pyrrolo[2,3-d]pyrimidin-4-yl)-1H-pyrazol-1-yl]azetidin-3-yl}acetonitrile] | < 10 nM | >10
7 | N#CCC1(n2cc(-c3ncnc4[nH]ccc34)cn2)CN(C2CCN(C(=O)Nc3ccc(F)cc3C(F)(F)F)CC2)C1 [Compound 8, 4-{3-(Cyanomethyl)-3-[4-(7H-pyrrolo[2,3-d]pyrimidin-4-yl)-1H-pyrazol-1-yl]azetidin-1-yl}-N-[4-fluoro-2-(trifluoromethyl)phenyl]piperidine-1-carboxamide] | < 10 nM | >10
8 | N#CCC1(n2cc(-c3ncnc4[nH]ccc34)cn2)CN(C2CCN(C(=O)c3ccnc(C(F)(F)F)n3)CC2)C1 [Compound 9, [3-[4-(7H-pyrrolo[2,3-d]pyrimidin-4-yl)-1H-pyrazol-1-yl]-1-(1-{[2-(trifluoromethyl)pyrimidin-4-yl]carbonyl}piperidin-4-yl)azetidin-3-yl]acetonitrile] | < 10 nM | >10
9 | N#CC[C@]1(n2cc(-c3ncnc4[nH]ccc34)cn2)C[C@H](N2CCN(C(=O)c3ccnc(C(F)(F)F)n3)CC2)C1 [Compound 10, [trans-1-[4-(7H-pyrrolo[2,3-d]pyrimidin-4-yl)-1H-pyrazol-1-yl]-3-(4-{[2-(trifluoromethyl)pyrimidin-4-yl]carbonyl}piperazin-1-yl)cyclobutyl]acetonitrile] | < 10 nM | >10
10 | N#CC[C@]1(n2cc(-c3ncnc4[nH]ccc34)cn2)C[C@H](N2CCC(Oc3cc(CN4CC(O)C4)cc(C(F)(F)F)n3)CC2)C1 [Compound 11, {trans-3-(4-{[4-[(3-hydroxyazetidin-1-yl)methyl]-6-(trifluoromethyl)pyridin-2-yl]oxy}piperidin-1-yl)-1-[4-(7H-pyrrolo[2,3-d]pyrimidin-4-yl)-1H-pyrazol-1-yl]cyclobutyl}acetonitrile] | < 10 nM | >10
11 | N#CC[C@]1(n2cc(-c3ncnc4[nH]ccc34)cn2)C[C@H](N2CCC(Oc3cc(CN4CCC[C@H]4CO)cc(C(F)(F)F)n3)CC2)C1 [Compound 12, {trans-3-(4-{[4-{[(2S)-2-(hydroxymethyl)pyrrolidin-1-yl]methyl}-6-(trifluoromethyl)pyridin-2-yl]oxy}piperidin-1-yl)-1-[4-(7H-pyrrolo[2,3-d]pyrimidin-4-yl)-1H-pyrazol-1-yl]cyclobutyl}acetonitrile] | < 10 nM | >10
12 | N#CC[C@]1(n2cc(-c3ncnc4[nH]ccc34)cn2)C[C@H](N2CCC(Oc3cc(CN4CCC[C@@H]4CO)cc(C(F)(F)F)n3)CC2)C1 [Compound 13, {trans-3-(4-{[4-{[(2R)-2-(hydroxymethyl)pyrrolidin-1-yl]methyl}-6-(trifluoromethyl)pyridin-2-yl]oxy}piperidin-1-yl)-1-[4-(7H-pyrrolo[2,3-d]pyrimidin-4-yl)-1H-pyrazol-1-yl]cyclobutyl}acetonitrile] | < 10 nM | >10
13 | C[C@H](NC(=O)c1cc(F)c(N2CC(CC#N)(n3cc(-c4ncnc5[nH]ccc45)cn3)C2)cc1F)C(F)(F)F [Compound 16, 4-{3-(cyanomethyl)-3-[4-(7H-pyrrolo[2,3-d]pyrimidin-4-yl)-1H-pyrazol-1-yl]azetidin-1-yl}-2,5-difluoro-N-[(1S)-2,2,2-trifluoro-1-methylethyl]benzamide] | < 10 nM | >10
14 | N#CCC1(n2cc(-c3ncnc4[nH]ccc34)cn2)CN([C@H]2CC[C@@H](Oc3cc(CCO)nc(C(F)(F)F)n3)CC2)C1 [Compound 18, {1-(cis-4-{[6-(2-hydroxyethyl)-2-(trifluoromethyl)pyrimidin-4-yl]oxy}cyclohexyl)-3-[4-(7H-pyrrolo[2,3-d]pyrimidin-4-yl)-1H-pyrazol-1-yl]azetidin-3-yl}acetonitrile] | < 10 nM | >10
15 | CCNCc1cc(O[C@H]2CC[C@@H](N3CC(CC#N)(n4cc(-c5ncnc6[nH]ccc56)cn4)C3)CC2)nc(C(F)(F)F)c1 [Compound 19, {1-(cis-4-{[4-[(ethylamino)methyl]-6-(trifluoromethyl)pyridin-2-yl]oxy}cyclohexyl)-3-[4-(7H-pyrrolo[2,3-d]pyrimidin-4-yl)-1H-pyrazol-1-yl]azetidin-3-yl}acetonitrile] | < 10 nM | >10
16 | CC(C)(O)c1cc(O[C@H]2CC[C@@H](N3CC(CC#N)(n4cc(-c5ncnc6[nH]ccc56)cn4)C3)CC2)nc(C(F)(F)F)c1 [Compound 20, {1-(cis-4-{[4-(1-hydroxy-1-methylethyl)-6-(trifluoromethyl)pyridin-2-yl]oxy}cyclohexyl)-3-[4-(7H-pyrrolo[2,3-d]pyrimidin-4-yl)-1H-pyrazol-1-yl]azetidin-3-yl}acetonitrile] | < 10 nM | >10
17 | N#CCC1(n2cc(-c3ncnc4[nH]ccc34)cn2)CN([C@H]2CC[C@@H](Oc3cc(CN4CC[C@@H](O)C4)cc(C(F)(F)F)n3)CC2)C1 [Compound 21, {1-(cis-4-{[4-{[(3R)-3-hydroxypyrrolidin-1-yl]methyl}-6-(trifluoromethyl)pyridin-2-yl]oxy}cyclohexyl)-3-[4-(7H-pyrrolo[2,3-d]pyrimidin-4-yl)-1H-pyrazol-1-yl]azetidin-3-yl}acetonitrile] | < 10 nM | >10
18 | N#CCC1(n2cc(-c3ncnc4[nH]ccc34)cn2)CN([C@H]2CC[C@@H](Oc3cc(CN4CC[C@H](O)C4)cc(C(F)(F)F)n3)CC2)C1 [Compound 22, {1-(cis-4-{[4-{[(3S)-3-hydroxypyrrolidin-1-yl]methyl}-6-(trifluoromethyl)pyridin-2-yl]oxy}cyclohexyl)-3-[4-(7H-pyrrolo[2,3-d]pyrimidin-4-yl)-1H-pyrazol-1-yl]azetidin-3-yl}acetonitrile] | < 10 nM | >10
19 | C[C@@H](CO)NCc1cc(OC2CCN([C@H]3C[C@](CC#N)(n4cc(-c5ncnc6[nH]ccc56)cn4)C3)CC2)nc(C(F)(F)F)c1 [Compound 23, {trans-3-(4-{[4-({[(1S)-2-hydroxy-1-methylethyl]amino}methyl)-6-(trifluoromethyl)pyridin-2-yl]oxy}piperidin-1-yl)-1-[4-(7H-pyrrolo[2,3-d]pyrimidin-4-yl)-1H-pyrazol-1-yl]cyclobutyl}acetonitrile] | < 10 nM | >10
20 | C[C@@H](O)CNCc1cc(OC2CCN([C@H]3C[C@](CC#N)(n4cc(-c5ncnc6[nH]ccc56)cn4)C3)CC2)nc(C(F)(F)F)c1 [Compound 24, {trans-3-(4-{[4-({[(2R)-2-hydroxypropyl]amino}methyl)-6-(trifluoromethyl)pyridin-2-yl]oxy}piperidin-1-yl)1-[4-(7H-pyrrolo[2,3-d]pyrimidin-4-yl)-1H-pyrazol-1-yl]cyclobutyl}acetonitrile] | < 10 nM | >10
21 | C[C@H](O)CNCc1cc(OC2CCN([C@H]3C[C@](CC#N)(n4cc(-c5ncnc6[nH]ccc56)cn4)C3)CC2)nc(C(F)(F)F)c1 [Compound 25, {trans-3-(4-{[4-({[(2S)-2-hydroxypropyl]amino}methyl)-6-(trifluoromethyl)pyridin-2-yl]oxy}piperidin-1-yl)-1-[4-(7H-pyrrolo[2,3-d]pyrimidin-4-yl)-1H-pyrazol-1-yl]cyclobutyl}acetonitrile] | < 10 nM | >10
22 | N#CC[C@]1(n2cc(-c3ncnc4[nH]ccc34)cn2)C[C@H](N2CCC(Oc3cc(CCO)cc(C(F)(F)F)n3)CC2)C1 [Compound 26, {trans-3-(4-{[4-(2-hydroxyethyl)-6-(trifluoromethyl)pyridin-2-yl]oxy}piperidin-1-yl)-1-[4-(7H-pyrrolo[2,3-d]pyrimidin-4-yl)-1H-pyrazol-1-yl]cyclobutyl}acetonitrile] | < 10 nM | >10
